Experimental data reported in PMC6973020, “Quinoline‐Conjugated Ruthenacarboranes: Toward Hybrid Drugs with a Dual Mode of Action” (Chemmedchem, 2019).

How the values were obtained:
MCF‐7 cells [1] = assay: ApoStat staining (caspase activation), MCF‐7; assay type: cell-based, human; settings: MCF‐7, 20 μM, 72 h
Protocol: (§1) Flow cytometry. For gaining better insights into the mechanisms of action of the ruthenium complexes, MCF‐7 and LN229 cells incubated with an IC50 dose of 3 or 4, were analyzed via flow cytometry. Several staining protocols were carried out in parallel, in independent experiments: i) AnnV/PI for the detection of apoptotic cell death, ii) AO for the detection of acidic vacuoles, iii) ApoStat for checking caspase activation, iv) CFSE for detecting interference with cellular proliferation, and v) DAPI for the detection of morphological signs of apoptosis. Untreated cells or cells treated only with BSA (control) were also measured, as reference for BSA‐free and BSA‐containing drug formulations, respectively. […] Channels FL1 (green emission), FL2 (orange emission) and/or FL3 (dark red emission) were used for fluorescence detection, according to the specific staining agent. Sideward Scatter (SSC) for MCF‐7 cells treated with 4 or BSA−4 was also analyzed, with respect to the control, for detection of shifts of cell granularity. […]
(§2) Staining Protocols for Flow Cytometric Analysis. […] Finally, cells were washed in PBS, resuspended in PBS (or AnnV‐binding buffer for AnnV/PI), and analysed. […] Cells were then washed, trypsinised, dissolved in PBS and analysed by CyFlow® Space Partec using the PartecFloMax® software (Partec GmbH, Münster, Germany). […]

MCF‐7 cells [2] = assay: CFSE staining, flow cytometry, MCF‐7; assay type: cell-based, human; settings: MCF‐7, 20 μM, 72 h
Protocol: as §1, §2

LN229 human glioblastoma = assay: Crystal violet (CV) cell viability assay, LN229; assay type: cell-based; settings: CV assay, 72 h; read-out: IC50 LN229
Source text: (§3) Thus, care must be taken when comparing their biological activities with those of our previous studies, even with the same cell line, because the covalent vs. non‐covalent combination of drugs might imply different mechanisms of action in the cell.44 Here, we studied the in vitro activity of ruthenacarborane 3, i. e. free acid, and its 8‐hydroxyquinolyl (4) and 4‐{(7‐chloroquinolin‐4‐yl)oxy}butanol‐1‐yl (5) esters, against a panel of cancer cell lines (B16 mouse melanoma, A375 human skin melanoma, MCF‐7 human breast adenocarcinoma, LN229 human glioblastoma, U251 human glioma). Human fibroblast cell line MRC‐5, murine microglial cell line BV‐2 as well as peritoneal exudate cells (Mph), were chosen as models for non‐malignant cells. […] On the other side, we wanted to assess the reproducibility of the viability data, under either controlled (with BSA) or uncontrolled (without BSA) conditions, in two sets of independent assays. […] Cells were exposed to 3–5 for 72 h, after which cell viability was determined via 3‐(4,5‐dimethylthiazol‐2‐yl)‐2,5‐diphenyltetrazolium bromide (MTT) and crystal violet (CV) assays, in parallel (Table 2). Cisplatin was also tested as reference.
(§4) Preparation of drug solutions. […] Stock solution of cisplatin was prepared in DMF (10 mM) immediately before use. A stock solution of BSA in PBS was prepared at 1.28 mM concentration, and stored at 4 °C in the dark. […] Alternatively, 3 or 4 (DMSO stock solution) were added to the BSA solution in PBS, always with a 10 : 1 molar ratio of BSA to ruthenacarborane. The BSA−ruthenacarborane solutions were incubated 0.5–1 h at room temperature, then diluted with cell culture medium to the desired final concentrations. Final concentrations of 3 and 4 were the same as for the BSA‐free formulation. Final DMSO was 0.02–0.5 vol %.
(§5) Colorimetric assays for cellular viability. […] For counting the number of attached (viable) cells, cells were fixed with 4 % (w/v) paraformaldehyde for 10 min at room temperature, and subsequently stained for 15 min with […] crystal violet (CV) solution. Cells were then washed with tap water, dried in air, and the CV dye was dissolved in 33 % (w/v) acetic acid solution. For the detection of mitochondrial respiration, cells were cultivated in MTT staining solution (0.5 mg mL^−1) for approximately 1 h. The dye was then discarded, and the formed formazan (purple) was dissolved in DMSO. The absorbance was measured with an automated microplate reader at λmax 540 nm, with the reference λmax 670 nm. Untreated cells or cells treated only with BSA (control) were also measured, as reference for BSA‐free and BSA‐containing drug formulations, respectively. For determination of the role of autophagy specific inhibitors, CQ or 3‐MA, were applied at a concentration of 20 μM and 0.5 mM, respectively, and the cells were stained with CV dye. Cell viability is expressed as percentage (%) relative to control (untreated cultures).58 Experiments were run in three independent replicates. […] Non‐linear regression analyses of the obtained results was done using GraphPad Prism software to calculate IC50 values.
(§6) mouse microglial cell line BV‐2 was a kind gift from Dr. Irena Lavrnja, Institute for Biological Research
(§7) “Siniša Stanković” (University of Belgrade).

U251 human glioma = assay: Crystal violet (CV) cell viability assay, U251; assay type: cell-based; settings: CV assay, 72 h; read-out: IC50 U251
Source text: as §3, §4, §5, §6, §7

[3] = system: U251 and LN229 cell lines; assay: Cell viability assays (MTT, CV), summary for glioma and glioblastoma lines; assay type: cell-based, human; settings: 72 h
Source text: as §3
Preparation of drug solutions. […] Stock solution of cisplatin was prepared in DMF (10 mM) immediately before use. A stock solution of BSA in PBS was prepared at 1.28 mM concentration, and stored at 4 °C in the dark. […] Alternatively, 3 or 4 (DMSO stock solution) were added to the BSA solution in PBS, always with a 10 : 1 molar ratio of BSA to ruthenacarborane. […]
Colorimetric assays for cellular viability. […] The absorbance was measured with an automated microplate reader at λmax 540 nm, with the reference λmax 670 nm. Untreated cells or cells treated only with BSA (control) were also measured, as reference for BSA‐free and BSA‐containing drug formulations, respectively. […] Cell viability is expressed as percentage (%) relative to control (untreated cultures).58 Experiments were run in three independent replicates. […]

Row | Substance | caspase activation (ApoStat) (MCF‐7 cells [1]) | cellular proliferation (CFSE staining) (MCF‐7 cells [2]) | IC50 (LN229 human glioblastoma) [µM] | IC50 (U251 human glioma) [µM] | IC50 ([3]; range over both cell lines, depending on assay and formulation type, read-out: IC50 concentrations against U251 and LN229) [µM] | activity against LN229 and U251 (in words) ([3]; concentration range tested up to 100 μM)
1 | closo ‐[3‐(η^6‐p‐Cymene)‐1‐(quinolin‐8‐yl‐acetate)‐3,1,2‐RuC2B9H10] [Compound 4] | caspase‐independent apoptosis | inhibition of cellular proliferation | 33.4 ± 3.5 | 45.1 ± 0.8 | 33 to 45 | 
2 | closo‐ [Compound 3, closo‐ [3‐(η^6‐p‐Cymene)‐1‐(CH2COOH)‐3,1,2‐RuC2B9H10]] | induce caspase activation | inhibition of cellular proliferation | 80 ± 7.7 | > 100 |  | inactive
